Results as given in paper PMC5247395 (EJNMMI Research, 2017).

Legend:
[1] = n-octanol/PBS distribution coefficient (shake-flask); assay type: physicochemical; settings: n-octanol/PBS pH 7.4, shake-flask
Protocol: The distribution coefficients (logD values) of the radioligands were determined by a shake-flask method using liquid-liquid extraction followed by phase separation, as previously reported (Additional file 1). In brief, the PSMA ligands were labeled at a specific activity of 5 MBq/nmol. […] The vials were vortexed vigorously for 1 min and then centrifuged for 6 min for phase separation. The concentration of radioactivity in a defined volume of each layer was measured in a γ-counter (Perkin Elmer, Wallac Wizard 1480). The distribution coefficients were expressed as the logarithm of the ratio of counts per minute (cpm) measured in the n-octanol phase to the cpm measure in the PBS phase. The values are reported as the average of at least three independent measurements (± standard deviation, SD), each performed with five replicates. Data were analyzed for significance using a one-way ANOVA test (GraphPad Prism software, version 7). A p value of <0.05 was considered as statistically significant.

PSMA = molecular target: T1, PSMA (Homo sapiens, UniProt Q04609); assay: Saturation binding assay on PC-3 PIP cells (PSMA affinity, KD)
T1 construct: expressed in transfected cells; host or cells: PC-3 PIP cells (PSMA-positive subline of human PC-3 prostate cancer cells), provided by Prof; Martin Pomper, Johns Hopkins
T1 sequence (Q04609 whole entry): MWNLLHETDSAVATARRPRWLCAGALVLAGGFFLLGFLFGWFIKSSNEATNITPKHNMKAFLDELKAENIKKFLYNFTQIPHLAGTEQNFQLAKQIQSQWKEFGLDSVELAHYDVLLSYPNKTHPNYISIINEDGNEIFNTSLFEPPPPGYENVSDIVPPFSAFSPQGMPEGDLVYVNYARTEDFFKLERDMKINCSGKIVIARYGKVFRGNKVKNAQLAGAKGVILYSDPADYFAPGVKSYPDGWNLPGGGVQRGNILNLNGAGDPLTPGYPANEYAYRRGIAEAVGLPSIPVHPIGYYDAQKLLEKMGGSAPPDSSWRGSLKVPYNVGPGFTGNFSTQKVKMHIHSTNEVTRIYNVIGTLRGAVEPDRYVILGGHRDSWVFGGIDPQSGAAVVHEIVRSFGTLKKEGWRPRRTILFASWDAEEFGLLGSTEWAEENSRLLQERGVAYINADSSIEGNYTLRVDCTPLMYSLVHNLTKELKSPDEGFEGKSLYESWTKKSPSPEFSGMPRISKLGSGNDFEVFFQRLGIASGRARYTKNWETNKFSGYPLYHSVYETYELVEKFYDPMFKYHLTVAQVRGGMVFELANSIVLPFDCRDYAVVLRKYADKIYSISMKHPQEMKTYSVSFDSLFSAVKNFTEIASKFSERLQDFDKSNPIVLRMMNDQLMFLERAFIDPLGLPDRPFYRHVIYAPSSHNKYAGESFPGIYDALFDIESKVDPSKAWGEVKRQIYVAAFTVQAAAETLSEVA
Protocol: Determination of the PSMA affinity was performed by saturation binding assays using PC-3 PIP cells and different concentrations of ^nat/44Sc-, ^nat/177Lu-, ^nat/68Ga-PSMA-617, or ^nat/68Ga-PSMA-11, respectively (Additional file 1).
Determination of the KD values was performed by saturation binding assays using PSMA^pos PC-3 PIP cells. After successful radiolabeling of the PSMA ligands, a 2.5-fold molar excess of the corresponding cold metal was added and the reaction mixture was incubated for another 10 min at 95 °C. Quality control was performed again after reaction of the radioligands with the “cold” metal as described in the main manuscript.
The cells were seeded in 48-well-plates (8 x 10^5 cells in 500 uL RPMI medium/well) allowing adhesion and growth overnight at 37 °C and 5% CO2. For the entire experiment, the well-plates were kept on ice. After removal of the supernatant, the cells were washed once with ice-cold PBS pH 7.4 prior to the addition of different concentrations (1 nM-2 µM) of either ^nat/44Sc-, ^nat/177Lu-, ^nat/67/68Ga-PSMA-617 or ^nat/67/68Ga-PSMA-11 in ice-cold RPMI medium without supplements. For the determination of non-specific binding, cell samples were incubated with 2-phosphonomethyl pentanedioic acid (2-PMPA, 200 μM). The well-plates were incubated for 30 min at 4 °C. Then, the supernatants were removed and the cells washed twice with ice-cold PBS followed by addition of NaOH (1 M, 600 µL) to each well. The cell suspensions were transferred to 4 mL tubes for measurement in a γ-counter (Wallac Wizard 1480, Perkin Elmer). The KD values were determined by plotting specific-binding (total binding minus unspecific binding) against the molar concentration of the added radioligands followed by nonlinear regression analysis using GraphPad Prism 7 software.

[2] = tested on: PC-3 PIP/flu tumor-bearing mice; assay: Biodistribution in PC-3 PIP/flu tumor-bearing mice; settings: i.v.; for PC-3 flu Tumor: PSMA^neg xenograft; for PC-3 PIP Tumor: PSMA^pos xenograft
Protocol: In vivo experiments were approved by the local veterinarian department and conducted in accordance with the Swiss law of animal protection. All mice were obtained from Charles River Laboratories (Sulzfeld, Germany), at the age of 5–6 weeks. Female, athymic nude Balb/c mice were subcutaneously inoculated with PC-3 PIP cells (6 × 10^6 cells in 100 μL Hank’s balanced salt solution (HBSS) with Ca^2+/Mg^2+) on the right shoulder and with PC-3 flu cells (5 × 10^6 cells in 100 μL HBSS with Ca^2+/Mg^2+) on the left shoulder 2 weeks before the performance of the experiments.
Mice were sacrificed at different time points post injection (p.i.) of the radioligands. Selected tissues and organs were collected, weighed and measured using a γ-counter. The results were decay-corrected and listed as a percentage of the injected activity per gram of tissue mass (% IA/g).

## O=C([O-])CN1CCN(CC(=O)[O-])CCN(CC(=O)NCC2CCC(C(=O)NC(Cc3ccc4ccccc4c3)C(=O)NCCCCC(NC(=O)NC(CCC(=O)O)C(=O)O)C(=O)O)CC2)CCN(CC(=O)[O-])CC1.[44Sc+3] (centres unmarked) [^44Sc-PSMA-617]
[1]
  LogD values: −4.21 ± 0.04
PSMA; 30 min at 4 °C, saturation binding
  Kd: 0.033 ± 0.012 µM
PSMA; inverse molar ratio of average KD values, ^177Lu-PSMA-617 set to 1
  Relative PSMA-binding affinity: 1.2
[2]; 15 min p.i.
  Blood: 6.76 ± 0.28 % IA/g
  Bone: 2.75 ± 0.73 % IA/g
  Heart: 2.79 ± 0.31 % IA/g
  Intestines: 1.89 ± 0.13 % IA/g
  Kidneys: 37.7 ± 0.82 % IA/g
  Liver: 1.98 ± 0.19 % IA/g
  Lung: 5.24 ± 0.30 % IA/g
  Muscle: 1.37 ± 0.11 % IA/g
  Salivary glands: 2.27 ± 0.22 % IA/g
  Spleen: 3.06 ± 0.18 % IA/g
  Stomach: 2.25 ± 0.16 % IA/g
  PC-3 flu Tumor: 2.14 ± 0.13 % IA/g
  PC-3 PIP Tumor: 36.5 ± 7.44 % IA/g
[2]; 30 min p.i.
  Blood: 2.52 ± 0.43 % IA/g
  Bone: 0.92 ± 0.19 % IA/g
  Heart: 1.31 ± 0.14 % IA/g
  Intestines: 1.05 ± 0.32 % IA/g
  Kidneys: 27.8 ± 3.29 % IA/g
  Liver: 0.80 ± 0.05 % IA/g
  Lung: 2.06 ± 0.25 % IA/g
  Muscle: 1.08 ± 0.20 % IA/g
  Salivary glands: 1.21 ± 0.14 % IA/g
  Spleen: 2.20 ± 0.67 % IA/g
  Stomach: 0.91 ± 0.17 % IA/g
  PC-3 flu Tumor: 1.51 ± 0.18 % IA/g
  PC-3 PIP Tumor: 44.4 ± 7.51 % IA/g
[2]; 2 h p.i.
  Bone: 0.26 ± 0.13 % IA/g
  Heart: 0.36 ± 0.04 % IA/g
  Intestines: 0.15 ± 0.04 % IA/g
  Kidneys: 5.97 ± 0.90 % IA/g
  Liver: 0.22 ± 0.03 % IA/g
  Lung: 0.37 ± 0.01 % IA/g
  Muscle: 0.36 ± 0.11 % IA/g
  Salivary glands: 0.36 ± 0.07 % IA/g
  Spleen: 0.81 ± 0.34 % IA/g
  Stomach: 0.20 ± 0.05 % IA/g
  PC-3 flu Tumor: 0.32 ± 0.16 % IA/g
  PC-3 PIP Tumor: 46.7 ± 4.36 % IA/g
[2]; 4 h p.i.
  PC-3 flu Tumor: 0.40 ± 0.08 % IA/g
  PC-3 PIP Tumor: 51.9 ± 4.05 % IA/g
[2]; 6 h p.i.
  Blood: 0.27 ± 0.02 % IA/g
  Bone: 0.65 ± 0.21 % IA/g
  Heart: 0.63 ± 0.10 % IA/g
  Intestines: 0.13 ± 0.01 % IA/g
  Kidneys: 3.09 ± 0.58 % IA/g
  Liver: 0.31 ± 0.02 % IA/g
  Lung: 0.51 ± 0.06 % IA/g
  Muscle: 0.94 ± 0.08 % IA/g
  Salivary glands: 0.75 ± 0.17 % IA/g
  Spleen: 0.90 ± 0.03 % IA/g
  Stomach: 0.39 ± 0.07 % IA/g
  PC-3 flu Tumor: 0.24 ± 0.02 % IA/g
  PC-3 PIP Tumor: 52.0 ± 8.42 % IA/g
